Key:
Format in all cases: biochemical
FXa [1] = biological target: T1, FXa (Homo sapiens, UniProt P00742); assay: Flu-II cleavage by residual FXa in whole blood; settings: citrated whole blood, 0 to 100 nM in blood (2 nM final, 50-fold dilution)
Target sequence in this assay (P00742 41-179 limits assumed): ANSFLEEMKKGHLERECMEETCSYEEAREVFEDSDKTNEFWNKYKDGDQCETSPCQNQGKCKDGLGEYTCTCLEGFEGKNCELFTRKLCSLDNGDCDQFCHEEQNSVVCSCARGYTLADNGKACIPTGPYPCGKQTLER
Target sequence in this assay (P00742 235-488 limits assumed): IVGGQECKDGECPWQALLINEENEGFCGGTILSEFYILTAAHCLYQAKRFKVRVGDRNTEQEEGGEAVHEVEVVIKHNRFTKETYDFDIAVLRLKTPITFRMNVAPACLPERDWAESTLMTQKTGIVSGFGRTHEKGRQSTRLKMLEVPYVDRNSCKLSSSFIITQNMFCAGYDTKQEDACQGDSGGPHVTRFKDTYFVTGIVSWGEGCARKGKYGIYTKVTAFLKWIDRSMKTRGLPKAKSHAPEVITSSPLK
Target sequence in this assay (P12259 29-737 partner limits assumed): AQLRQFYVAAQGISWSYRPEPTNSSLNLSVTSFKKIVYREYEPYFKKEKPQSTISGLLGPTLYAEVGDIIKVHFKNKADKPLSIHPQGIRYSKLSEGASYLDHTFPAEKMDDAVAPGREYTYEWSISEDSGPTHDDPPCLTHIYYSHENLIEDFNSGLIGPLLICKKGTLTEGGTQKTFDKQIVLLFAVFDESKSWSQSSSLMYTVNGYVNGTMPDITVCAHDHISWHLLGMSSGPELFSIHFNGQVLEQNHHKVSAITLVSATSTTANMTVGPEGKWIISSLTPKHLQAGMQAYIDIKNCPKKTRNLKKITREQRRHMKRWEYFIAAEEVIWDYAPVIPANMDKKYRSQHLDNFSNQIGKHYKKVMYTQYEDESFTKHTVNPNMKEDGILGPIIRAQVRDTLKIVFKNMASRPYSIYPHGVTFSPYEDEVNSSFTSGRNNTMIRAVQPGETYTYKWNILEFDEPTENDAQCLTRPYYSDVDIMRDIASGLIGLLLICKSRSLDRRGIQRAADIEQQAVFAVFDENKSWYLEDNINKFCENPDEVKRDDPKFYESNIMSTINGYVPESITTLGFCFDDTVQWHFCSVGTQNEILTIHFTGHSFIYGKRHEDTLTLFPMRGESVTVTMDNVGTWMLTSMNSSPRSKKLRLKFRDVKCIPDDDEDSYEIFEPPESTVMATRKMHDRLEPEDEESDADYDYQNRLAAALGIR
Target sequence in this assay (P12259 1574-2224 partner limits assumed): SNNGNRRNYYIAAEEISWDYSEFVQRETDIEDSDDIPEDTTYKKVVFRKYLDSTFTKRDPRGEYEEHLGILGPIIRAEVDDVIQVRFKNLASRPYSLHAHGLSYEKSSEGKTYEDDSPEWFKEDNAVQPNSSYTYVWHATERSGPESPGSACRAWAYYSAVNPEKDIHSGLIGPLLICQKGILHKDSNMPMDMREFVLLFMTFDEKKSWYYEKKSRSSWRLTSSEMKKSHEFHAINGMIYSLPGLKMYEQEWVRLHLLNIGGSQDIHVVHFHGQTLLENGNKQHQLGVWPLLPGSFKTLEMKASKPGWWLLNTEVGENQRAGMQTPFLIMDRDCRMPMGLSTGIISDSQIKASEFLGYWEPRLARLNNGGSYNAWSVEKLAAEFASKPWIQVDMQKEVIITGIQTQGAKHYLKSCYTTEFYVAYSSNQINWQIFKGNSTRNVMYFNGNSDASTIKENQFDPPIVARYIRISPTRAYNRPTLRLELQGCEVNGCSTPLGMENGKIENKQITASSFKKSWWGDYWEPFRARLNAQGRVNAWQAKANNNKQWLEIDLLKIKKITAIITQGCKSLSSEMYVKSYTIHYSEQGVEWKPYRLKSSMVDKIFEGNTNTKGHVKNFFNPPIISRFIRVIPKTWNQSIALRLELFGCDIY

FXa [2] = biological target: T1, FXa; assay: Flu-II cleavage by residual FXa in individual plasma samples; settings: citrated plasma from four individuals; rivaroxaban 0 to 5 nM, apixaban 0 to 10 nM
Target sequence in this assay (P00742 41-179 limits assumed): as the sequence (P00742 41-179 limits assumed) above
Target sequence in this assay (P00742 235-488 limits assumed): as the sequence (P00742 235-488 limits assumed) above
Target sequence in this assay (P12259 29-737 partner limits assumed): as the sequence (P12259 29-737 partner limits assumed) above
Target sequence in this assay (P12259 1574-2224 partner limits assumed): as the sequence (P12259 1574-2224 partner limits assumed) above

FXa [3] = biological target: T1, FXa; assay: Rate of Flu-II cleavage by residual FXa in normal human pooled plasma; settings: rivaroxaban 0 to 5 nM, apixaban 0 to 10 nM, 0.1 nM FXa mixture
Target sequence in this assay (P00742 41-179 limits assumed): as the sequence (P00742 41-179 limits assumed) above
Target sequence in this assay (P00742 235-488 limits assumed): as the sequence (P00742 235-488 limits assumed) above
Target sequence in this assay (P12259 29-737 partner limits assumed): as the sequence (P12259 29-737 partner limits assumed) above
Target sequence in this assay (P12259 1574-2224 partner limits assumed): as the sequence (P12259 1574-2224 partner limits assumed) above

FXa [4] = biological target: T1, FXa; assay: Flu-II cleavage by residual FXa in plasma with LMWH; settings: normal human pooled plasma, LMWH 0 to 1 unit/mL final
Target sequence in this assay (P00742 41-179): as the sequence (P00742 41-179 limits assumed) above
Target sequence in this assay (P00742 235-488): as the sequence (P00742 235-488 limits assumed) above
Target sequence in this assay (P01008 33-464 partner): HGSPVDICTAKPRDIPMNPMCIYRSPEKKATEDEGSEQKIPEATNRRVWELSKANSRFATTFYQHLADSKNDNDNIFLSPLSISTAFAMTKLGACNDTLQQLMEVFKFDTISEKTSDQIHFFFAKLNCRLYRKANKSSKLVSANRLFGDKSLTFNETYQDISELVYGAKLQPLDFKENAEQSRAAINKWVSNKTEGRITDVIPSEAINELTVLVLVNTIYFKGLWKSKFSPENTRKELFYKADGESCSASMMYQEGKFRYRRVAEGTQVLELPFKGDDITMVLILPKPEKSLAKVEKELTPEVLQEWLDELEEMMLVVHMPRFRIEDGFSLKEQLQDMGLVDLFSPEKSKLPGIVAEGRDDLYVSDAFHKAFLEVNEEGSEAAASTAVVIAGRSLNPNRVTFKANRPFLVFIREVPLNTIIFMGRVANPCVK

Row | response of rate of Flu-II cleavage to levels of LMWH (FXa [4]) | Molecule | maximal inhibition (initial rate of Flu-II cleavage) (FXa [1]) [%] | maximal inhibition of total FXa activity (FXa [2]) [%] | overall inhibition of total activity (rate of Flu-II cleavage) (FXa [3]) [%]
1 | – | O=C(NC[C@H]1CN(c2ccc(N3CCOCC3=O)cc2)C(=O)O1)c1ccc(Cl)s1 [rivaroxaban] | ~50 | ~80 | ~85
2 | sensitive to the levels of LMWH | dalteparin | – | – | –
